Results: patent US20230085307A1, “PYRIDAZINONE COMPOUND AND HERBICIDE” (NISSAN CHEMICAL CORPORATION, priority 2019, published 2023)

Each compound was assayed on oval-leafed pondweed (assay: Test Example 2: herbicidal activity, application during weed generation under submerged conditions (Table 17, symbol C)). Settings: AAH 320 g/ha; application during weed generation, submerged conditions.
Type: in vivo, oval-leafed pondweed (Monochoria vaginalis)
How it was run: (§1)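 Wagner pot, alluvial soil, 4 cm flood; mixed sowing of all species; greenhouse 25° C.–30° C. Emulsifiable formulation, water-diluted to predetermined dose, applied to paddy water at 1–2 leaf stage. Effect rated at 3 wk using the earlier test's scoring criteria.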
C#CCOc1ccc(-c2sc3ccc(F)cc3c2-c2c(O)c(C)nn(C)c2=O)cc1 [2-053] was tested, and the “herbicidal effect rating, C: oval-leafed pondweed” value was 3 (Herbicidal rate of 40% or more and less than 70%). CSc1ccc(-c2sc3ccc(F)cc3c2-c2c(O)c(C)nn(C)c2=O)cc1 [2-076] was tested, and the “herbicidal effect rating, C: oval-leafed pondweed” value was 0 (Herbicidal rate of 5% or less (almost no effect)).

What follows are compounds tested on barnyard grass (assay: Test Example 3: herbicidal effect by foliage application, Wagner pot (Table 18, symbol H)). Settings: 320 g/ha.
Type: in vivo, barnyard grass (Echinochloa crus-galli)
How it was run: (§2)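 Plants were sown in alluvial soil held under 0.1–0.5 cm standing water and grown 14 days in a greenhouse at 25–30 °C. An emulsifiable formulation, water-diluted to the set dose, was then sprayed onto the foliage, and effects were scored three weeks later using previously defined criteria.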
For C#CCOc1ccc(-c2sc3ccc(F)cc3c2-c2c(O)c(C)nn(C)c2=O)cc1 [2-053], the “herbicidal effect on H (barnyard grass), rating 0-5” value was 5 (Herbicidal rate of 90% or more (almost completely withered)). In the case of CSc1ccc(-c2sc3ccc(F)cc3c2-c2c(O)c(C)nn(C)c2=O)cc1 [2-076], the “herbicidal effect on H (barnyard grass), rating 0-5” value is reported as 5 (Herbicidal rate of 90% or more (almost completely withered)).

Each compound was assayed on Japanese bulrush (assay: Test Example 1: herbicidal activity, application before weed generation under submerged conditions (Table 16, symbol B)). Settings: 320 g/ha applied herbicide.
Type: in vivo, Japanese bulrush (Schoenoplectus juncoides)
How it was run: (§3)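 Emulsion formulation, water-diluted to set dose, was put onto the flooded surface (4 cm depth, alluvial soil) the same day weeds were sown and 2.5-leaf rice transplanted. After 3 weeks at 25-30 °C under glass, each species was rated 0 (≤5% kill) to 5 (≥90% kill).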
With C#CCOc1ccc(-c2sc3ccc(F)cc3c2-c2c(O)c(C)nn(C)c2=O)cc1 [2-053] the “Herbicidal effect on B: Japanese bulrush (grade 0-5)” value was 3 (Herbicidal rate of 40% or more and less than 70%). For CSc1ccc(-c2sc3ccc(F)cc3c2-c2c(O)c(C)nn(C)c2=O)cc1 [2-076], the “Herbicidal effect on B: Japanese bulrush (grade 0-5)” value was 0 (Herbicidal rate of 5% or less (almost no effect)).

What follows are compounds tested on southern crabgrass (assay: Test Example 5: herbicidal effect by foliage application, plastic box (Table 20, symbol F)). Settings: foliage application, 320 g/ha, evaluated three weeks after application.
Type: in vivo, southern crabgrass (Digitaria ciliaris)
How it was run: (§4)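 Plants sown in sterilized diluvial soil and grown 14 days in a greenhouse at 25° C to 30° C, then sprayed on the foliage with the compound's emulsion diluted in water to a predetermined herbicide amount. Injury to weeds and crops scored three weeks after application on a visual rating scale.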
For C#CCOc1ccc(-c2sc3ccc(F)cc3c2-c2c(O)c(C)nn(C)c2=O)cc1 [2-053], the “herbicidal effect on F: southern crabgrass” value was 4 (Herbicidal rate of 70% or more and less than 90%). In the case of CSc1ccc(-c2sc3ccc(F)cc3c2-c2c(O)c(C)nn(C)c2=O)cc1 [2-076], the “herbicidal effect on F: southern crabgrass” value is reported as 5 (Herbicidal rate of 90% or more (almost completely withered)).

These compounds were tested on late watergrass (assay: Test Example 1: herbicidal activity, application before weed generation under submerged conditions (Table 16, symbol A)). Settings: 320 g/ha applied herbicide.
Type: in vivo, late watergrass (Echinochloa oryzicola)
How it was run: as §3
With C#CCOc1ccc(-c2sc3ccc(F)cc3c2-c2c(O)c(C)nn(C)c2=O)cc1 [2-053] the “Herbicidal effect on A: late watergrass (grade 0-5)” value was 2 (Herbicidal rate of 20% or more and less than 40%). For CSc1ccc(-c2sc3ccc(F)cc3c2-c2c(O)c(C)nn(C)c2=O)cc1 [2-076], the “Herbicidal effect on A: late watergrass (grade 0-5)” value was 3 (Herbicidal rate of 40% or more and less than 70%).

What follows are compounds tested on rice flat sedge (assay: Test Example 3: herbicidal effect by foliage application, Wagner pot (Table 18, symbol E)). Settings: 320 g/ha.
Type: in vivo, rice flat sedge (Cyperus iria)
How it was run: as §2
C#CCOc1ccc(-c2sc3ccc(F)cc3c2-c2c(O)c(C)nn(C)c2=O)cc1 [2-053] was tested, and the “herbicidal effect on E (rice flat sedge), rating 0-5” value was 4 (Herbicidal rate of 70% or more and less than 90%). CSc1ccc(-c2sc3ccc(F)cc3c2-c2c(O)c(C)nn(C)c2=O)cc1 [2-076] was tested, and the “herbicidal effect on E (rice flat sedge), rating 0-5” value was 5 (Herbicidal rate of 90% or more (almost completely withered)).

The compounds below were run on Chinese sprangletop (assay: Test Example 3: herbicidal effect by foliage application, Wagner pot (Table 18, symbol D)). Settings: 320 g/ha.
Type: in vivo, chinese sprangletop (Leptochloa chinensis)
How it was run: as §2
C#CCOc1ccc(-c2sc3ccc(F)cc3c2-c2c(O)c(C)nn(C)c2=O)cc1 [2-053] was tested, and the “herbicidal effect on D (Chinese sprangletop), rating 0-5” value was 5 (Herbicidal rate of 90% or more (almost completely withered)). For CSc1ccc(-c2sc3ccc(F)cc3c2-c2c(O)c(C)nn(C)c2=O)cc1 [2-076], the “herbicidal effect on D (Chinese sprangletop), rating 0-5” value was 5 (Herbicidal rate of 90% or more (almost completely withered)).

Each compound was assayed on windgrass (assay: Test Example 4: herbicidal effect by soil treatment (Table 19, symbol L)). Settings: 320 g/ha.
Type: in vivo, windgrass (Apera spica-venti)
How it was run: (§5)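 Three weeks of greenhouse growth at 25° C. to 30° C. followed a uniform surface spray of water-diluted emulsion at a predetermined herbicide amount. Seeds had been sown beforehand under about 1.5 cm of sterilized diluvial soil. Grading followed criteria set out in an earlier test.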
In the case of C#CCOc1ccc(-c2sc3ccc(F)cc3c2-c2c(O)c(C)nn(C)c2=O)cc1 [2-053], the “herbicidal effect rating, L: windgrass” value is reported as 0 (Herbicidal rate of 5% or less (almost no effect)). In the case of CSc1ccc(-c2sc3ccc(F)cc3c2-c2c(O)c(C)nn(C)c2=O)cc1 [2-076], the “herbicidal effect rating, L: windgrass” value is reported as 4 (Herbicidal rate of 70% or more and less than 90%).

What follows are compounds tested on blackgrass (assay: Test Example 5: herbicidal effect by foliage application, plastic box (Table 20, symbol J)). Settings: foliage application, 320 g/ha, evaluated three weeks after application.
Type: in vivo, blackgrass (Alopecurus myosuroides)
How it was run: as §4
In the case of C#CCOc1ccc(-c2sc3ccc(F)cc3c2-c2c(O)c(C)nn(C)c2=O)cc1 [2-053], the “herbicidal effect on J: blackgrass” value is reported as 4 (Herbicidal rate of 70% or more and less than 90%). For CSc1ccc(-c2sc3ccc(F)cc3c2-c2c(O)c(C)nn(C)c2=O)cc1 [2-076], the “herbicidal effect on J: blackgrass” value was 4 (Herbicidal rate of 70% or more and less than 90%).

What follows are compounds tested on late watergrass (assay: Test Example 2: herbicidal activity, application during weed generation under submerged conditions (Table 17, symbol A)). Settings: AAH 320 g/ha; application during weed generation, submerged conditions.
Type: in vivo, late watergrass (Echinochloa oryzicola)
How it was run: as §1
For C#CCOc1ccc(-c2sc3ccc(F)cc3c2-c2c(O)c(C)nn(C)c2=O)cc1 [2-053], the “herbicidal effect rating, A: late watergrass” value was 0 (Herbicidal rate of 5% or less (almost no effect)). In the case of CSc1ccc(-c2sc3ccc(F)cc3c2-c2c(O)c(C)nn(C)c2=O)cc1 [2-076], the “herbicidal effect rating, A: late watergrass” value is reported as 2 (Herbicidal rate of 20% or more and less than 40%).

These compounds were tested on redroot pigweed (assay: Test Example 4: herbicidal effect by soil treatment (Table 19, symbol N)). Settings: 320 g/ha.
Type: in vivo, redroot pigweed (Amaranthus retroflexus)
How it was run: as §5
C#CCOc1ccc(-c2sc3ccc(F)cc3c2-c2c(O)c(C)nn(C)c2=O)cc1 [2-053] was tested, and the “herbicidal effect rating, N: redroot pigweed” value was 0 (Herbicidal rate of 5% or less (almost no effect)). For CSc1ccc(-c2sc3ccc(F)cc3c2-c2c(O)c(C)nn(C)c2=O)cc1 [2-076], the “herbicidal effect rating, N: redroot pigweed” value was 5 (Herbicidal rate of 90% or more (almost completely withered)).

These compounds were tested on persian speedwell (assay: Test Example 5: herbicidal effect by foliage application, plastic box (Table 20, symbol R)). Settings: foliage application, 320 g/ha, evaluated three weeks after application.
Type: in vivo, Persian speedwell (Veronica persica)
How it was run: as §4
C#CCOc1ccc(-c2sc3ccc(F)cc3c2-c2c(O)c(C)nn(C)c2=O)cc1 [2-053] was tested, and the “herbicidal effect on R: persian speedwell” value was 5 (Herbicidal rate of 90% or more (almost completely withered)). With CSc1ccc(-c2sc3ccc(F)cc3c2-c2c(O)c(C)nn(C)c2=O)cc1 [2-076] the “herbicidal effect on R: persian speedwell” value was 5 (Herbicidal rate of 90% or more (almost completely withered)).

Each compound was assayed on Italian ryegrass (assay: Test Example 4: herbicidal effect by soil treatment (Table 19, symbol K)). Settings: 320 g/ha.
Type: in vivo, Italian ryegrass (Lolium multiflorum)
How it was run: as §5
For C#CCOc1ccc(-c2sc3ccc(F)cc3c2-c2c(O)c(C)nn(C)c2=O)cc1 [2-053], the “herbicidal effect rating, K: Italian ryegrass” value was 0 (Herbicidal rate of 5% or less (almost no effect)). CSc1ccc(-c2sc3ccc(F)cc3c2-c2c(O)c(C)nn(C)c2=O)cc1 [2-076] was tested, and the “herbicidal effect rating, K: Italian ryegrass” value was 4 (Herbicidal rate of 70% or more and less than 90%).

Each compound was assayed on barnyard grass (assay: Test Example 5: herbicidal effect by foliage application, plastic box (Table 20, symbol H)). Settings: foliage application, 320 g/ha, evaluated three weeks after application.
Type: in vivo, barnyard grass (Echinochloa crus-galli)
How it was run: as §4
In the case of C#CCOc1ccc(-c2sc3ccc(F)cc3c2-c2c(O)c(C)nn(C)c2=O)cc1 [2-053], the “herbicidal effect on H: barnyard grass” value is reported as 5 (Herbicidal rate of 90% or more (almost completely withered)). With CSc1ccc(-c2sc3ccc(F)cc3c2-c2c(O)c(C)nn(C)c2=O)cc1 [2-076] the “herbicidal effect on H: barnyard grass” value was 5 (Herbicidal rate of 90% or more (almost completely withered)).

The compounds below were run on wild oat (assay: Test Example 5: herbicidal effect by foliage application, plastic box (Table 20, symbol I)). Settings: foliage application, 320 g/ha, evaluated three weeks after application.
Type: in vivo, wild oat (Avena fatua)
How it was run: as §4
In the case of C#CCOc1ccc(-c2sc3ccc(F)cc3c2-c2c(O)c(C)nn(C)c2=O)cc1 [2-053], the “herbicidal effect on I: wild oat” value is reported as 2 (Herbicidal rate of 20% or more and less than 40%). With CSc1ccc(-c2sc3ccc(F)cc3c2-c2c(O)c(C)nn(C)c2=O)cc1 [2-076] the “herbicidal effect on I: wild oat” value was 5 (Herbicidal rate of 90% or more (almost completely withered)).

What follows are compounds tested on green foxtail (assay: Test Example 5: herbicidal effect by foliage application, plastic box (Table 20, symbol G)). Settings: foliage application, 320 g/ha, evaluated three weeks after application.
Type: in vivo, green foxtail (Setaria viridis)
How it was run: as §4
C#CCOc1ccc(-c2sc3ccc(F)cc3c2-c2c(O)c(C)nn(C)c2=O)cc1 [2-053] was tested, and the “herbicidal effect on G: green foxtail” value was 5 (Herbicidal rate of 90% or more (almost completely withered)). For CSc1ccc(-c2sc3ccc(F)cc3c2-c2c(O)c(C)nn(C)c2=O)cc1 [2-076], the “herbicidal effect on G: green foxtail” value was 5 (Herbicidal rate of 90% or more (almost completely withered)).
